{
  "source": "patent US20250002863A1",
  "about": "“METHOD OF GENERATING FUNCTIONAL ISLETS FROM PLURIPOTENT STEM CELLS” (HANGZHOU REPROGENIX BIOSCIENCE, INC., priority 2021, published 2025)",
  "tested_on": "pancreatic endocrine progenitors",
  "test": "Addition of small molecules ISX9 and Wnt-C59 at Stage 5, flow cytometry of β cell marker expression in Stage 6 aggregates",
  "assay_type": "cell-based, human",
  "details": "added at Stage 5 of the hPSC differentiation protocol (10 μM ISX9, 100 nM Wnt-C59)",
  "description": "FIG. 5 illustrates establishment of efficient hPSC-islet generation protocol and characterization of hPSC-islets. a, Flow cytometry analysis comparing differentiation efficiencies between planar culture and suspension culture at various stages of the protocol in terms of pancreatic progenitor markers at the end of Stage 4 and β cell markers at the end of Stage 6 (n=5). b, Flow cytometry of β cell marker expression in Stage 6 aggregates without and with addition of small molecules ISX9 and Wnt-C59, individually or in combination at Stage 5, detected at S6D2 (n=4). c, Continuous stage-wise tracking of pancreatic progenitor, endocrine progenitor, and β cell markers by flow cytometry throughout the differentiation protocol (n=3). (d-h) In vitro characterization of stage 6 islet-like aggregates. d, Representative immunostaining of key β cell transcription factors in sectioned Stage 6 aggregates. Scale bar, 50 μm. e, C-peptide secretion of Stage 6 aggregates (n=3) and primary human islets in static glucose stimulation assay (n=2). Glucose stimulation index as indicated above bars. f, Insulin secretion of hPSC-islets in dynamic perifusion assay. g, Electron microscopy depicting ultrastructure of Stage 6 β cell and insulin granules. Scale bar, 2.5 μm. h, Glucagon secretion by hPSC-islets in static glucose stimulation assay. […]",
  "data": [
    {"smiles": "O=C(NC1CC1)c1cc(-c2cccs2)on1", "note": "[ISX9, Isoxazole 9]", "values": [
      {"measurement": "differentiation of pancreatic progenitors / terminal differentiation of pancreatic endocrine progenitors", "value": "promoted the terminal differentiation of pancreatic endocrine progenitors"}
    ]}
  ]
}
